Data taken from PMC8395767, “Worsening of the Toxic Effects of (±)Cis-4,4′-DMAR Following Its Co-Administration with (±)Trans-4,4′-DMAR: Neuro-Behavioural, Physiological, Immunohistochemical and Metabolic Studies in Mice” (International Journal of Molecular Sciences, 2021).
Values joined by “and” are separate entries in the source; they are usually repeats but may differ in a detail not shown here. Identical values can stand only once. Marks after values point to notes of the source that are not given here.

Experiments:
[1] = test system: mice; experiment: Spontaneous and stimulated aggressiveness (bites of a grey cloth); assay type: in vivo
Method: (§1) The effects of (±)cis-4,4′-DMAR, (±)trans-4,4′-DMAR and their co-administration were investigated by a protocol widely used in studies of “safety pharmacology” for the preclinical characterization of new molecules in rodents. This protocol includes a series of observational behavioural tests carried out in a consecutive manner that monitor the animal responses up to 5 h after compound injections. In the present study, we reported the observation of physiological (sweating, salivation, core temperature) and neuro-behavioural (detection of psychomotor agitation, spontaneous and stimulated aggressiveness, convulsions) changes occurring in mice after injection of (±)cis-4,4′-DMAR, (±)trans-4,4′-DMAR and their co-administration. Before pharmacological treatment the mouse was placed on a square plate (30 cm× 30 cm) raised from the ground (20 cm) and left free to move on the plate for 10 min (habituation period). The animal was then injected with the vehicle, substances alone ((±)cis-4,4′-DMAR or (±)trans-4,4′-DMAR) or in cis + trans co-administration and placed on the plate. From this moment, the recording time of the physiological and neuro-behavioural responses started, and these were detected in 5-min sessions.
(§2) After the first 5 min, the animal was removed from the plate; the body core temperature was then measured, and the aggression tests were performed. The 5-min observation period was repeated at 15–30–60–90–120–180–240–300. Psychomotor agitation in the mouse was not simply related to an increase in spontaneous locomotion itself, but by an “unusual hyperactivity” which was characterised by rapid and sudden horizontal displacements in all directions, sustained turning behaviour, involuntary falls from the high plate during the evaluation of the tests, stereotyped movements and rearing activity. Mouse sweating and salivation were reported only if present or not. The core temperature was determined using a probe (1 mm diameter) that was gently inserted after lubrication with liquid Vaseline into the rectum of the mouse (to about 2 cm) and left in position until the temperature stabilised (about 10 s). The probe was connected to a digital thermometer. Spontaneous aggressive response was measured based on the number of times a mouse bit a grey cloth put in front of its snout. During the test, each mouse was free to move within the cage. In the case of stimulated aggressiveness, each mouse was manually restrained and held in a supine position following which an object was brought near the mouth. For both spontaneous and stimulated aggressive behaviour tests, a grey cloth was placed in front of the nose of each mouse 10 consecutive times (score 0/10 not aggressive, score 10/10 very aggressive). Convulsions were defined as a loss of righting reflexes for at least 5 s, combined with the presence of body tremors and clonic or tonic limb movements. Deaths caused by 4-4’-DMAR injection occurring during the observation period (5 h) were also reported as frequency (%) and time of death (min). Experiments were conducted inside the LARP (Centralised Preclinical Research Laboratory, University of Ferrara, Ferrara, Italy) in a thermo-stated (temperature 20–22 °C, humidity about 45–55%) and light controlled (about 150 lux) room, in which there was a background noise of about 40 ± 4 dB. The experiments, conducted in blind by trained observers working together in pairs, were videotaped and eventually analysed off-line by a different trained operator. The experiments were performed between 8:30 a.m. and 2:00 p.m.
(§3) Sweating and salivation were expressed as frequency (e.g., % of animals that developed symptoms); psychomotor agitation was expressed as frequency (% of animals) and duration (total time in mins). Core temperature values were expressed as the difference between control temperature (before injection) and temperature following drug administration (Δ°C). […]

[2] = test system: frontal cortex; experiment: Histology of brain (haematoxylin/eosin); assay type: in vivo, mice; conditions: 30 mg/kg, compared to controls
From the text: Following the acute death or the sacrifice of the animals (after 5-h observation period by dislocation of the spine), brains were taken. These were fixed in 4% buffered formalin and then sampled and incorporated into the paraffin (Leica ASP300 processor, Histoline TEC2900 incorporator; Leica Microsystems Srl, Buccinasco, Milano, Italy). Subsequently, the cut (performed with the Leica HistoCore autocut microtome; Leica Microsystems Srl, Buccinasco, Milano, Italy) was designed to create sections with a thickness of 5 µm for each sample.
For histological investigations, the sections were stained with haematoxylin/eosin and then observed under optical microscope (Nikon Eclipse E90i; Nikon, Roma, Italy).

[3] = test system: mice; experiment: Sweating and salivation (observation, present or not); assay type: in vivo; conditions: n=6 mice
Method: as §1, §2, §3

[4] = test system: mice; experiment: Convulsions (observation); assay type: in vivo; conditions: n=6 mice
Method: as §1, §2, §3

[5] = test system: mice; experiment: Lethality during the observation period; assay type: in vivo; conditions: n=6 mice
Method: as §1, §2, §3

[6] = test system: mice; experiment: Psychomotor agitation (observational behavioural test); assay type: in vivo
Method: as §1, §2, §3

[7] = test system: mice; experiment: Physiological and neuro-behavioural responses, all parameters (safety pharmacology protocol); assay type: in vivo
Method: The effects of (±)cis-4,4′-DMAR, (±)trans-4,4′-DMAR and their co-administration were investigated by a protocol widely used in studies of “safety pharmacology” for the preclinical characterization of new molecules in rodents. This protocol includes a series of observational behavioural tests carried out in a consecutive manner that monitor the animal responses up to 5 h after compound injections. […] From this moment, the recording time of the physiological and neuro-behavioural responses started, and these were detected in 5-min sessions.
After the first 5 min, the animal was removed from the plate; the body core temperature was then measured, and the aggression tests were performed. […] The core temperature was determined using a probe (1 mm diameter) that was gently inserted after lubrication with liquid Vaseline into the rectum of the mouse (to about 2 cm) and left in position until the temperature stabilised (about 10 s). […] Spontaneous aggressive response was measured based on the number of times a mouse bit a grey cloth put in front of its snout. […] The experiments, conducted in blind by trained observers working together in pairs, were videotaped and eventually analysed off-line by a different trained operator. […]

[8] = test system: SERT; design: method as in PMID 25331619; conditions: rat brain tissue, lower potency than (±)cis-4,4′-DMAR; cited from earlier work
[9] = test system: DAT; design: method as in PMID 25331619; conditions: rat brain tissue, lower potency than (±)cis-4,4′-DMAR; cited from earlier work
[10] = 10 mg/kg i.p., n=4 mice (animals of the urine excretion study)
[11] = 30 mg/kg i.p., listed as (±)cis-4,4′-DMAR
[12] = 60 mg/kg i.p., listed as (±)cis-4,4′-DMAR

Cc1ccc(C2OC(N)=NC2C)cc1 (stereo not drawn) [cis-4,4’-DMAR, 4-methyl-5-(4-methylphenyl)-4,5-dihydrooxazol-2-amine]
Aggressiveness Stimulated Frequency % (n° of mice) [1, 10]: 100% (4) | Aggressiveness Stimulated Score (n° of bites) [1, 10]: 5 ± 0.23 n° of bites | Aggressiveness Stimulated Frequency % (n° of mice) ([1]; 10 mg/kg i.p., n=6 mice): 100% (6) | Aggressiveness Stimulated Score (n° of bites) ([1]; 10 mg/kg i.p., n=6 mice): 6 ± 0.23 n° of bites | Aggressiveness Stimulated Frequency % (n° of mice) ([1]; 30 mg/kg i.p., n=6 mice): 100% (6) | Aggressiveness Stimulated Score (n° of bites) ([1]; 30 mg/kg i.p., n=6 mice): 10 ± 0.23 ^b n° of bites | Spontaneous aggressiveness ([1]; mice, i.p., 60 mg/kg could not be tested): not associated with increased levels | Histology of the frontal cortex (edema, vacuolization areas) [2]: mild edema | Salivation Frequency % (n° of mice) ([3]; 30 mg/kg i.p.): 100% (6) | Sweating Frequency % (n° of mice) ([3]; 30 mg/kg i.p.): 100% (6) | Salivation Frequency % (n° of mice) [3, 11]: All animals | Sweating Frequency % (n° of mice) [3, 11]: All animals | Salivation Frequency % (n° of mice) ([3]; 60 mg/kg i.p.): 50% (3) | Sweating Frequency % (n° of mice) ([3]; 60 mg/kg i.p.): 100% (6) | Sweating Frequency % (n° of mice) [3, 12]: 50% | Convulsion Duration of each episode ([4]; 30 mg/kg i.p.): 4.86 ± 1.26 s | Convulsion Episodes (n°) ([4]; 30 mg/kg i.p.): 3.5 ± 0.5 n° | Convulsion Frequency % (n° of mice) ([4]; 30 mg/kg i.p.): 50% (3) | Convulsion Latency of first episode ([4]; 30 mg/kg i.p.): 10.5 ± 1.5 s | Convulsion Frequency % (n° of mice) [4, 11]: 50% | Convulsion Duration of each episode ([4]; 60 mg/kg i.p.): 16.14 ± 6.2 s | Convulsion Duration of each episode (sec) ([4]; 60 mg/kg i.p.): 16.14 ± 3.2 ^d sec | Convulsion Episodes (n°) ([4]; 60 mg/kg i.p.): 2.0 ± 0.41 ^d n° and 2.0 ± 0.41 n° | Convulsion Frequency % (n° of mice) ([4]; 60 mg/kg i.p.): 100% (6) | Convulsion Latency of first episode ([4]; 60 mg/kg i.p.): 8.25 ± 1.1 s | Convulsion Frequency % (n° of mice) [4, 12]: 100% | Lethality Frequency % (n° of mice) ([5]; 30 mg/kg i.p.): 50% (3) | Lethality Surviving mice % (n° of mice) ([5]; 30 mg/kg i.p.): 50% (3) | Lethality Time of death ([5]; 30 mg/kg i.p.): 59.3 ± 2.3 min | Lethality Frequency % (n° of mice) ([5]; 60 mg/kg i.p.): 100% (6) | Lethality Surviving mice % (n° of mice) ([5]; 60 mg/kg i.p.): 0% (0) | Lethality Time of death ([5]; 60 mg/kg i.p.): 31.9 ± 5.6 min | Lethality Time of death (min) ([5]; 60 mg/kg i.p.): 31.9 ± 5.6 ^d min | Psychomotor agitation Frequency % (n° of mice) ([6]; 1 mg/kg i.p., n=6 mice): ineffective | Psychomotor agitation Duration ([6]; 3 mg/kg i.p., n=6 mice): 54.2 ± 10.30 min | Psychomotor agitation Frequency % (n° of mice) ([6]; 3 mg/kg i.p., n=6 mice): 100% (6) | Psychomotor agitation Latency ([6]; 3 mg/kg i.p., n=6 mice): 61.2 ± 6.30 min | Psychomotor agitation, start of effect ([6]; 10 mg/kg alone, mice): about thirty | Psychomotor agitation Duration [6, 10]: 125.0 ± 10.12 min | Psychomotor agitation Frequency % (n° of mice) [6, 10]: 100% (4) | Psychomotor agitation Latency [6, 10]: 26.4 ± 6.25 min | Psychomotor agitation Duration ([6]; 10 mg/kg i.p., n=6 mice): 121.0 ± 12.35 min | Psychomotor agitation Duration (min) ([6]; 10 mg/kg i.p., n=6 mice): 121.0 ± 12.35 ^a min | Psychomotor agitation Frequency % (n° of mice) ([6]; 10 mg/kg i.p., n=6 mice): 100% (6) | Psychomotor agitation Latency ([6]; 10 mg/kg i.p., n=6 mice): 28.2 ± 7.20 min | Psychomotor agitation Latency (min) ([6]; 10 mg/kg i.p., n=6 mice): 28.2 ± 7.20 ^a min | Psychomotor agitation Frequency % (n° of mice) ([6]; 10 mg/kg i.p., n=6 mice, listed as (±)cis-4,4′-DMAR): 100% | Psychomotor agitation Duration (min) ([6]; 30 mg/kg i.p., n=6 mice): 235.1 ± 15.25 ^ab min | Psychomotor agitation Frequency % (n° of mice) ([6]; 30 mg/kg i.p., n=6 mice): 100% (6) | Psychomotor agitation Latency (min) ([6]; 30 mg/kg i.p., n=6 mice): 3.2 ± 0.25 ^ab min | Psychomotor agitation Duration (min) ([6]; 60 mg/kg i.p., n=6 mice): 280.1 ± 12.35 ^ab min | Psychomotor agitation Frequency % (n° of mice) ([6]; 60 mg/kg i.p., n=6 mice): 100% (6) | Psychomotor agitation Latency ([6]; 60 mg/kg i.p., n=6 mice): 2.2 ± 0.15 min | Psychomotor agitation Latency (min) ([6]; 60 mg/kg i.p., n=6 mice): 2.2 ± 0.15 ^ab min | Psychomotor agitation, dose range in which the effect was significant ([6]; i.p., mice, tested 0.1–60 mg/kg): 3 to 60 mg/kg

Cc1ccc(C2OC(N)=NC2C)cc1 (stereo not drawn) [trans-4,4’-DMAR, 4-methyl-5-(4-methylphenyl)-4,5-dihydrooxazol-2-amine]
Physiological and neuro-behavioural changes ([7]; 30 and 60 mg/kg, systemic administration): did not induce any physiological and neuro-behavioural changes | Physiological and neuro-behavioural parameters, all parameters studied ([7]; lower doses of 0.1 and 1 mg/kg): inactive | Mode of action at SERT [8]: uptake blocker | Mode of action at DAT [9]: substrate-type releaser
